Experimental data from PMC11583123, “Linker Chemistry and Connectivity Fine-Tune the Immune Response and Kinetic Solubility of Conjugated NOD2/TLR7 Agonists” (Bioconjugate Chemistry, 2024).

Tests used:
Format in all cases: cell-based
[1] = molecular target: T1, human NOD2 (Homo sapiens, UniProt Q9HC29); assay: HEK-Blue NOD2 NF-κB SEAP reporter assay; conditions: HEK-Blue NOD2 cells
T1 construct: host or cells: HEK-Blue NOD2 (HEK293-derived)
From the text: (§1) The building blocks and synthesized conjugates were initially assessed for their receptor-specific activities toward NOD2, TLR7 and TLR8 using the commercially available HEK-Blue NOD2, TLR7 and TLR8 reporter cell lines. These cell lines were derived from HEK293 cells by cotransfection of human NOD2/TLR7/TLR8 and an NF-κB-inducible secreted embryonic alkaline phosphatase (SEAP). Activation of NOD2/TLR7/TLR8, and subsequently of NF-κB, leads to the expression and secretion of SEAP, the levels of which can be quantified colorimetrically. […]
(§2) 3.1. Hek-Blue NOD2, TLR7 and TLR8 cells.
(§3) HEK-Blue NOD2, TLR7, and TLR8 cells (Invivogen, San Diego, CA, USA) were cultured according to the manufacturer instructions in Dulbecco’s modified Eagle’s medium (Sigma-Aldrich, St. Louis, MO, USA) supplemented with 10% heat-inactivated fetal bovine serum (Gibco), 2 mM L-glutamine (Sigma-Aldrich), 100 U/mL penicillin (Sigma-Aldrich), 100 µg/mL streptomycin (Sigma-Aldrich), and 100 µg/mL Normocin (Invivogen) for two passages. All subsequent passages of NOD2 and TLR8 cells were cultured in medium additionally supplemented with 100 µg/mL Zeocin and 30 µg/mL Blasticidin (Invivogen) and of TLR7 cells with 100 µg/mL Zeocin and 10 µg/mL Blasticidin. […]
(§4) The tested compounds were dissolved in DMSO and further diluted in culture medium to the desired final concentrations, such that the final DMSO concentration never exceeded 0.1%. […]
(§5) 3.4 NOD2/TLR7/TLR8 NF-kB reporter assay
(§6) HEK-Blue NOD2 cells (25,000 cells/well), TLR7 and TLR8 cells (40,000 cells/well) were seeded in 96-well plates in 100 µL HEK-Blue detection medium (Invivogen, San Diego, CA, USA) and treated with […]
(§7) corresponding vehicle (0.1% DMSO). After 18 h of incubation (37 °C, 5% CO2), secreted embryonic

[2] = molecular target: T2, human TLR7 (Homo sapiens, UniProt Q9NYK1); assay: HEK-Blue TLR7 NF-κB SEAP reporter assay; conditions: HEK-Blue TLR7 cells
T2 construct: host or cells: HEK-Blue TLR7 (HEK293-derived)
T2 sequence (Q9NYK1 27-1049): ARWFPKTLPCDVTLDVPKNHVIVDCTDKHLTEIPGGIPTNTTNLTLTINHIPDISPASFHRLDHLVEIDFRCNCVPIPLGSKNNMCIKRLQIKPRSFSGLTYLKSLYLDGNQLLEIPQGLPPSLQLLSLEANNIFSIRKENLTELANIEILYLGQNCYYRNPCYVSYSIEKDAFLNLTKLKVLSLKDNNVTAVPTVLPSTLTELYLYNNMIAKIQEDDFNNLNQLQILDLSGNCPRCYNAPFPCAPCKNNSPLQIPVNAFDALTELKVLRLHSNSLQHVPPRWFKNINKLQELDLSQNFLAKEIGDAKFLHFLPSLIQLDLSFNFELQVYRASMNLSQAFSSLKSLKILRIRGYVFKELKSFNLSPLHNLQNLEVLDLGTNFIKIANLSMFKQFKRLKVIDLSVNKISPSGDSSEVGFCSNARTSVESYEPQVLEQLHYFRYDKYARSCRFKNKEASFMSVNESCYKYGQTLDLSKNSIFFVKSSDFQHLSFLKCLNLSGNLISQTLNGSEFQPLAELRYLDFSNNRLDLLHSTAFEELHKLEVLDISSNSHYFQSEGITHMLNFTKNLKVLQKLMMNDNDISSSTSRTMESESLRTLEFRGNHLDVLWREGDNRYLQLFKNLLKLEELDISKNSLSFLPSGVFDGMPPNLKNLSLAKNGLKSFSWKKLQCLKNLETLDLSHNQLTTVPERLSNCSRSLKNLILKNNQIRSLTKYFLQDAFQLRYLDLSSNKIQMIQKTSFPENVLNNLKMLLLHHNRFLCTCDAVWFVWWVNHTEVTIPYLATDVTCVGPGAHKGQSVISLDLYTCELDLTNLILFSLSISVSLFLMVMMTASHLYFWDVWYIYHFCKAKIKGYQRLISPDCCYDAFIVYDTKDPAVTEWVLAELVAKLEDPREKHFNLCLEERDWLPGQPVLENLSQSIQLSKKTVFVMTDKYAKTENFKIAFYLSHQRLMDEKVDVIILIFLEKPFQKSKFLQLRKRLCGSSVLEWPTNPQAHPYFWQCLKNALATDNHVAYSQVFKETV
From the text: as §1, §2, §3, §4, §5, §6, §7

[3] = molecular target: T3, human TLR8 (Homo sapiens, UniProt Q9NR97); assay: HEK-Blue TLR8 NF-κB SEAP reporter assay; conditions: HEK-Blue TLR8 cells; for EC50: 18 h, eight concentrations (1 nM to 10 μM), mean ± SEM; for TLR8 agonistic activity (in words): up to 10 μM
T3 construct: host or cells: HEK-Blue TLR8 (HEK293-derived)
T3 sequence (Q9NR97 27-1041): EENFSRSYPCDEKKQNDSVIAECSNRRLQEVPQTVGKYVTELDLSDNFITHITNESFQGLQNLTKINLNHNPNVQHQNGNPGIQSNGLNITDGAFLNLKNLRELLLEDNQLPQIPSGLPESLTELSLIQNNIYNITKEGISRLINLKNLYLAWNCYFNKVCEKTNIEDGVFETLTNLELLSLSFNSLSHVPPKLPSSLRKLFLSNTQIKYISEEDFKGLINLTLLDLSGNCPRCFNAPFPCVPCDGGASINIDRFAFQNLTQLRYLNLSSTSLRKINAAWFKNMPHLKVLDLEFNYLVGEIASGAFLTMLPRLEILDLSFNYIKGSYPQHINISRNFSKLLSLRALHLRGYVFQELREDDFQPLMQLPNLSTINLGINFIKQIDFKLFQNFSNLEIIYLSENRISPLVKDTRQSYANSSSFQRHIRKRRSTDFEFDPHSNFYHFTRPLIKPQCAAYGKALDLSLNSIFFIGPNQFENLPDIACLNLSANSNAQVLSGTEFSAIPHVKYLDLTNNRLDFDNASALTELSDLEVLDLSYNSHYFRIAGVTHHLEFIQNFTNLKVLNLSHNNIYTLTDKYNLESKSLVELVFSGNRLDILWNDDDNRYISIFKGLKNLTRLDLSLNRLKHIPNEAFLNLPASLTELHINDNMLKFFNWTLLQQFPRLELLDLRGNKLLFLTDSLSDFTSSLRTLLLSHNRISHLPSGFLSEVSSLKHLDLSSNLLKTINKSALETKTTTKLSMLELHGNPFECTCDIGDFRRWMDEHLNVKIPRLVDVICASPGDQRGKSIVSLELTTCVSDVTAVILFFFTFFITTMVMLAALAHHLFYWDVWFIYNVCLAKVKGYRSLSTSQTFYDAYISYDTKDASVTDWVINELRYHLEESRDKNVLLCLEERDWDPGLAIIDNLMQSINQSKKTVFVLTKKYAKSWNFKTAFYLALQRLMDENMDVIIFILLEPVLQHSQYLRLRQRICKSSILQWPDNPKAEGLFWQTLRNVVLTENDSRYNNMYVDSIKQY
From the text: as §1, §2, §3, §4, §5, §6, §7

[4] = 18 h, eight concentrations (1 nM to 10 μM), mean ± SEM

T1 sequence (Q9HC29 whole entry): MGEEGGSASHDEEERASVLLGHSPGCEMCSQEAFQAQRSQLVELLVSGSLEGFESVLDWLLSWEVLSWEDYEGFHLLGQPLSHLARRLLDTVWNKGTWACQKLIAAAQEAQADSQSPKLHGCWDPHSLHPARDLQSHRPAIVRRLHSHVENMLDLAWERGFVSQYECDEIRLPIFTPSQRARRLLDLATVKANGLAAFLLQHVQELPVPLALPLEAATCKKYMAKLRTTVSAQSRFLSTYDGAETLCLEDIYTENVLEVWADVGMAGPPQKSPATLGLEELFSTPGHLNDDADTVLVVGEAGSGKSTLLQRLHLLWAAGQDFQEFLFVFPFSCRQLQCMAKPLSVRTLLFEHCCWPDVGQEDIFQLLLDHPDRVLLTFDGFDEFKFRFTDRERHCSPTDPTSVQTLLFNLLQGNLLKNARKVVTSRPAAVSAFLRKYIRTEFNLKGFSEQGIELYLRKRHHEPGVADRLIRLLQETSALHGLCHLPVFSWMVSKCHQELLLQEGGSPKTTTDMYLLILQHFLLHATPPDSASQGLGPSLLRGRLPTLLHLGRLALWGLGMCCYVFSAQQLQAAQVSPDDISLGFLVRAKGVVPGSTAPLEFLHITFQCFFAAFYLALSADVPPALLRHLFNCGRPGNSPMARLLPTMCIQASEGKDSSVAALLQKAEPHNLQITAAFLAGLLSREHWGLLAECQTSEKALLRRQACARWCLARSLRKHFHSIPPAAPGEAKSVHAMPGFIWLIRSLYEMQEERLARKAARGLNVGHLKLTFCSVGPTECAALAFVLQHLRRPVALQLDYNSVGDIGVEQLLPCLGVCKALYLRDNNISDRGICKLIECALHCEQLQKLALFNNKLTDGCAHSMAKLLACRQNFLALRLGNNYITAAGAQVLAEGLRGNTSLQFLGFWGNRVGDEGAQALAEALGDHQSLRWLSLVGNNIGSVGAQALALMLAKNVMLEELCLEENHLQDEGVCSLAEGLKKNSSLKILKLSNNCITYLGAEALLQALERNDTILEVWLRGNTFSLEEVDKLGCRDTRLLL

CCOCc1nc2c(NC(=O)CCCCCNC(=O)CC[C@@H](NC(=O)[C@@H](NC(=O)CNC(=O)/C=C/c3ccc(O)c(OC)c3)C(C)C)C(=O)OCC)nc3ccccc3c2n1CC(C)(C)O [compound 32]
EC50 [1]: 7.2 µM
EC50 [1, 4]: 7.23 ± 0.499 µM
EC50 [2, 4]: > 10 µM
TLR7 agonistic activity (in words) ([2]; up to 10 μM): devoid of TLR7 agonistic activity
EC50 [3]: > 10 µM
TLR8 agonistic activity (in words) [3]: neither 32 nor 33 were able to induce any TLR8 agonistic activity

CCOCc1nc2c(N)nc3ccccc3c2n1CC(C)(C)NC(=O)CCCCCNC(=O)CC[C@@H](NC(=O)[C@@H](NC(=O)CNC(=O)/C=C/c1ccc(O)c(OC)c1)C(C)C)C(=O)OCC [compound 33]
EC50 [1, 4]: > 10 µM
EC50 [2]: 5.3 µM
EC50 [2, 4]: 5.29 ± 1.5 µM
EC50 [3]: > 10 µM
TLR8 agonistic activity (in words) [3]: neither 32 nor 33 were able to induce any TLR8 agonistic activity
